Measurements from patent US20030027243A1, “Antifungal compounds and methods of use” (Anadys Pharmaceuticals, Inc., priority 2000, published 2003).

Legend:
Assay in all cases: Broth microdilution antifungal susceptibility test (NCCLS M27A based), MIC
Assay type in all cases: cell-based
Details in all cases: quality control range for control compounds, 35° C., 48 hours
[1] = system: Candida albicans, e.g., ATCC 10231
Description: (§1) Non-limiting examples of such procedures test the candidate inhibitor compounds for antifungal activity against a panel of three strains: C. albicans, S. cerevisiae , and A. nidulans. One such procedure is based on the NCCLS M27A method (The National Committee for Clinical Laboratory Standards, Reference Method for Broth Microdilution Antifungal Susceptibility Testing of Yeasts; approved standard, 1997) to measure minimum inhibitory concentrations (MICs) and minimum fungicidal concentrations (MFCs). An overview of this of this protocol follows.
(§2) 3. RPMI-1640: 10.4 g powdered media (Sigma R-6504, w/ glutamine & w/o bicarbonate); 2.0 g NaHCO3 (Sigma S-6297); 34.53 g MOPS buffer (Sigma M-6270). Dissolve powdered media and NaHCO3 in 900 ml distilled water. Add MOPS and stir until dissolved. Adjust pH to 7.0 using 1N NaOH. Bring final volume to 1 liter, filter sterilize, and store at 4° C.
(§3) 1. Yeasts: Yeasts (Saccharonyces cerevisiae and Candida albicans) are cultured on Sabouraud dextrose agar (SDA) plates in a 35° C. incubator. Strains on SDA plates are stored at 4° C. and used as working stock cultures. Working stock plates are prepared once a month from frozen stocks of cells. Inoculum for susceptibility testing is prepared from fresh 24 hour cultures. 5-10 colonies are scraped from the plate and suspended in three milliliters of sterile 0.85% saline (8.5 g/liter NaCl). The cell density of the solution is determined by measuring the absorbance in a spectrophotometer (Shimadzu UV-1201S UV-VIS Spectrophotometer) set at 600 nm. An absorbance value between 0.1 and 0.4 is required for an accurate reading. […]
(§4) Stock solutions of control compounds (1.6 mg/ml, Amphotericin B or Itraconazole) are initially diluted in medium to a concentration of 32 ug/ml while stock solutions of test compounds (typically 12.8 mg/ml) are diluted to 256 ug/ml. […] If a stock solution of a test compound is not at 12.8 mg/ml, the appropriate dilution must be calculated. […]

[2] = system: Aspergillus nidulans, e.g., NRRL 194 (ATCC 38163)
Description: as §1
3. RPMI-1640: 10.4 g powdered media (Sigma R-6504, w/ glutamine & w/o bicarbonate); 2.0 g NaHCO3 (Sigma S-6297); 34.53 g MOPS buffer (Sigma M-6270). Dissolve powdered media and NaHCO3 in 900 ml distilled water. Add MOPS and stir until dissolved. Adjust pH to 7.0 using 1N NaOH. […]
2. […] The turbidity of the solution is determined by measuring the absorbance in a spectrophotometer (Shimadzu UV-1201S UV-VIS Spectrophotometer) set at 600 nm. An absorbance value between 0.1 and 0.4 is required for an accurate reading. […]
as §4

[3] = system: Saccharomyces cerevisiae, e.g., CTY552
Description: as §1, §2, §3, §4

Row | SMILES | Acceptable MIC range values [1] [µg/mL] | Acceptable MIC range values [2] [µg/mL] | Acceptable MIC range values [3] [µg/mL]
1 | CCC(C)n1ncn(-c2ccc(N3CCN(c4ccc(OCC5COC(Cn6cncn6)(c6ccc(Cl)cc6Cl)O5)cc4)CC3)cc2)c1=O (centres unmarked) [Itraconazole] | 0.25 to 1.0 | 0.25 to 1.0 | 
2 | C[C@@H]1[C@H](O)[C@@H](C)/C=C/C=C/C=C/C=C/C=C/C=C/C=C/[C@H](O[C@@H]2O[C@H](C)[C@@H](O)[C@H](N)[C@@H]2O)C[C@@H]2O[C@](O)(C[C@@H](O)C[C@@H](O)[C@H](O)CC[C@@H](O)C[C@@H](O)CC(=O)O[C@H]1C)C[C@H](O)[C@H]2C(=O)O [Am B, Amphotericin B] | 0.25 to 1.0 | 0.5 to 2.0 | 0.25 to 1.0
